GI50 and TGI data for eight molecules are collected here from PubChem BioAssay (NCI).

SMILES strings stand for the structures.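 Cells were grown in 96-well plates and exposed to each compound for 48 hours at five concentrations; endpoints were interpolated linearly between bracketing concentrations, or set to the highest concentration if not reached. The concentration for 50% growth inhibition is given as GI50. TGI is the concentration that stops growth completely.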 Some results are limits rather than exact numbers.

What all share (assay): NCI tumour cell line growth inhibition, 48 h
Experiment [1] has as its system KM12 colon.
Experiment [2] concerns TK-10 renal.
The subject of experiment [3] is SK-MEL-2 melanoma.
The subject of experiment [4] is T-47D breast.
For experiment [5], the system named is UACC-257 melanoma.
Experiment [6] relates to MALME-3M melanoma.
Experiment [7] deals with NCI-H522 lung.
Experiment [8] deals with A498 renal.
For experiment [9], the system named is OVCAR-4 ovarian.
Experiment [10] concerns RXF 393 renal.

Regarding `COc1ccc2c(c1OC)-c1c(c3ccc([N+](=O)[O-])cc3c(=O)n1CCCBr)C2=O`, the GI50 in experiment [1] was above 100 µM; in experiment [2] it was above 100 µM; in experiment [3] it was above 100 µM; in experiment [4] it was 97.3 µM; in experiment [5], above 100 µM; in experiment [6], 79.9 µM. The GI50 was 27.6 µM in [7] and above 100 µM in experiment [8]. For the same molecule, the TGI in [1], in [2], in experiment [3], in experiment [4], in experiment [5] and in experiment [6] was above 100 µM in each case. Also, the TGI in experiment [7] and in experiment [8] was above 100 µM in each case.

As for `CNNC(=N\S(=O)(=O)c1cc(C)c(Cl)cc1SCc1ccccc1)/N=C/c1ccc([N+](=O)[O-])s1`, the GI50 was 3.03 µM in [1]; above 74.9 µM in experiment [2]; above 100 µM in experiment [3]; above 100 µM in [9]; above 100 µM in experiment [10]; above 100 µM in experiment [4]. Also, the values for the GI50 in experiment [5], in experiment [6] and in experiment [7] were above 100 µM, 1.18 µM and above 100 µM, respectively. The TGI in experiment [1], in [2], in experiment [3], in experiment [9], in experiment [10] and in [4] was above 100 µM in each case. Besides, the TGI in experiment [5] is above 100 µM; in experiment [6] it was above 64.2 µM; in [7], above 100 µM.

Regarding `NC(=O)[C@@H](CC1CC1)[C@@H](CCC(F)(F)F)C(=O)N[C@H]1N=C(c2ccccc2)c2cccc(F)c2NC1=O`, the GI50 in experiment [1] is above 100 µM; in experiment [2], above 100 µM; in [3] it was above 100 µM; in experiment [9] it was 54.9 µM; in [10] it was 68 µM; in [4] it was 15.3 µM. The GI50 in [5] was above 100 µM; in experiment [6], 15.4 µM; in experiment [7] it was above 100 µM. Further, the TGI in experiment [1] is above 100 µM; in [2] it was above 100 µM; in experiment [3], above 100 µM; in experiment [9], above 100 µM; in [10] it was above 100 µM; in experiment [4], 56.8 µM. The TGI in experiment [5] is above 100 µM; in experiment [6], 32.5 µM; in experiment [7] it was above 100 µM.

As for `CC[C@@]1(OC(=O)CN)C(=O)OCc2c1cc1n(c2=O)Cc2c-1nc1cc3c(cc1c2CCl)OCO3`, the GI50 in [1] is 0.12 µM; in [2], 0.947 µM; in experiment [3], 1.24 µM; in [9], 0.381 µM; in experiment [4], below 0.01 µM; in experiment [5] it was 1.02 µM. Further, the GI50 was 0.0501 µM in experiment [6], 0.0257 µM in experiment [7] and 0.0661 µM in experiment [8]. Also, the TGI worked out at 0.39 µM in experiment [1]; 7.62 µM in experiment [2]; 5.04 µM in experiment [3]; 11.3 µM in experiment [9]; 7.79 µM in experiment [4]; 15.1 µM in experiment [5]. In addition, the TGI amounted to 4.44 µM in experiment [6], 2.19 µM in experiment [7] and 1.24 µM in [8].

As to `CCC(C)Oc1nc2c(c(=O)n(C)c(=O)n2C)n1C` (configuration not stated), the GI50 in experiment [1], in experiment [2], in experiment [3], in [9], in experiment [10] and in experiment [4] was above 100 µM each time. Also, the GI50 in experiment [5] and in experiment [6] was above 100 µM each time. Further, the TGI in [1], in experiment [2], in [3], in experiment [9], in experiment [10] and in experiment [4] was above 100 µM in each case. Also, the TGI in experiment [5] and in [6] was above 100 µM each time.

Consider `CCc1ccccc1NC(=O)/C=C/c1ccccc1`, for which the TGI in experiment [1], in experiment [2], in experiment [3], in experiment [9], in experiment [4] and in experiment [5] was above 100 µM each time. The TGI in [6], in [7] and in experiment [8] was above 100 µM in each case.

Turning to `O=c1nc(-c2ccccc2)cc(CC(O)c2ccc(Cl)c(Cl)c2)[nH]1` (configuration not stated), the TGI in experiment [1] is above 100 µM; in experiment [2] it was above 100 µM; in experiment [3], 65.3 µM; in experiment [9] it was above 100 µM; in [10] it was above 100 µM; in experiment [5], above 100 µM. Moreover, the TGI in experiment [6] was above 100 µM; in experiment [7] it was 90.8 µM; in [8], 77.2 µM.

In the case of `O=c1cc(-c2ccc(O)cc2)oc2cc(O[C@@H]3O[C@H](CO)[C@@H](O)[C@H](O)[C@H]3O)cc(O)c12`, the TGI in experiment [1], in experiment [2], in experiment [3], in experiment [9], in experiment [4] and in experiment [5] was above 100 µM in each case. In addition, the TGI in experiment [7] and in [8] was above 100 µM each time.
